Values of other authors as cited in patent publication US8859603B2, “Method for solubilizing metronidazole” (Galderma S.A., priority 2004, dated 2014).

Conditions: no solubilizer

intrinsic solubility of metronidazole in an aqueous phase: ~0.9 % (m/m)
Compound: Cc1ncc([N+](=O)[O-])n1CCO [metronidazole, 1-(2-hydroxyethyl)-2-methyl-5-nitroimidazole]
